# In US7425548B2, “Materials and methods for immune system stimulation” (Variety Chidren's Hospital, priority 2004, dated 2008):
# Like-named read-outs stand apart in the source and are kept apart here.
# Experiments:
# RAW264.7 macrophages = experiment: Opsonized binding and phagocytosis of FITC-zymosan A bioparticles; format: cell-based, mouse; settings: 500 μg/ml, 37° C., 1 hour
# Procedure: Monocytes were incubated with RR1 at 37° C. for 1 hour followed by FITC-labeled zymosan A bioparticles for another 1 hour at 37° C. The cells were washed and intracellular fluorescence measured in a Coulter Elite Flow cytometer.
# Opsonized binding and Phagocytosis. To determine the effect of RR1 and laminarin on opsonized binding and phagocytosis of zymosan A particles, RAW 264.7 cells were treated with RR1 or laminarin (0 and 500 μg/ml) in DMEM at 37° C. for 1 hour. This will ensure the release of opsonins and facilitate opsonic binding. The cells were washed with PBS twice and incubated with zymosan A-FITC bioparticles at a ratio of 25 particles/cell at 37° C. for 1 hour. The cells were suspended in PBS after removing the unbound zymosan particles by extensive washing with the medium, and the intracellular fluorescence analyzed in a Coulter Elite flow cytometer. The fluorescence intensity was expressed as percentage of control.
# [1] = test system: human monocyte cell line THP-1; experiment: NO synthesis in monocyte cell line; format: cell-based
# Excerpt: (§1) NO levels are also reported to play an important role in the modulation of Th cell differentiation and polarization. Yamasaki et al. (Yamasaki, A. et al. Yonago Acta Medica, 1998, 44:7-15) and Taylor-Robinson et al. (Taylor-Robinson, A. W. et al. Eur. J. Immunol., 1994, 24:980-984) reported an inhibitory role of NO on Th1 cytokines while Bauer et al. (Bauer, H. et al., Immunol, 1997, 90:205-211) reported the same for Th1 as well as Th2 cytokines by NO from activated T cells. […] The enzyme iNOS produced a high output of NO from macrophages upon stimulation. […] The absence of iNOS induction by RR1 supports the conclusion that there is an insignificant increase in the production of NO. […] IFN-α, IFN-γ and TNF-α are known up-regulators of NO synthesis (Shin, J. Y. et al. Immunopharmcol. Immunotoxicol., 2002, 24:469-482; Hirazumi, A. and Furusawa, E. Phytother Res., 1999, 13:380-387).
# [2] = test system: monocytes isolated from peripheral blood mononuclear cells; experiment: NO synthesis in monocytes; format: cell-based
# Excerpt: as §1
# normal lymphocytes [3] = experiment: Nitric oxide (NO) synthesis, Griess assay; format: cell-based, human; settings: RR1 0-100 μg/ml, 24 hours
# Procedure: Normal lymphocytes from healthy volunteers were treated with RR1 (0-100 μg) at 37° C. for 24 in a CO2 incubator in MEM medium. The supernatant medium was analyzed for the production of NO using assay kit from Active Motif, Carlsbad, Calif. and data analyzed using ANOVA (p=0.109).
# The NO quantification was assayed by Nitric Oxide quantification kit (ACTIVE MOTIF, Carlsbad, Calif.) as per the manufacturer's protocol. Briefly, lymphocytes (10^6/ml) were incubated with varying concentrations of RR1 (0-100 μg/ml) for 24 hours in a nitrate free medium (DULBECO Minimum Essential Medium) at 37° C. The cell culture supernatant (70 μl) was pipetted into the wells of a 96-well plate along with 20 μl reconstituted co-factor and 10 μl nitrate reductase enzyme solution. The plate was shaken at 150 rpm on a plate shaker for 30 minutes at room temperature. Griess reagents A and B (50 μl each) were added into each well, allowed the color to develop for 20 minutes and the absorbance was taken at 540 nm with a reference wavelength of 620 nm in the BIO-RAD plate reader.
# normal lymphocytes [4] = experiment: Quantification of cytokine and chemokine synthesis by ELISA; format: cell-based, human
# Procedure: FIGS. 8A-8H show synthesis of cytokines and chemokine in RR1-induced normal lymphocytes. Normal lymphocytes from healthy volunteers were treated with RR1 (0-100 μg) at 37° C. for 24 hours in a CO2 incubator in RPMI medium. The supernatant medium was analyzed for the production of cytokines and chemokine in an ELISA procedure using reagent kits (BD Biosciences).
# Immunostimulating Properties. To measure the immune stimulatory property of RR1, the activation of the different subsets of lymphocytes, syntheses of cytokines such as interleukin (IL)-1β, IL-2, IL-4, IL-6, IL-10, IL-12 p70 and p40, IL-18, interferon (IFN)-α and γ, Tumor Necrosis factor (TNF)-α and β, monocyte chemo-attractant protein (MCP)-1, synthesis of nitric oxide (NO), and the extent of oxidative stress elicited in human lymphocytes was analyzed. Normal lymphocytes were isolated by the histopaque density gradient method from fresh blood drawn from healthy volunteers and utilized for various assays. Human leukemic (CEM) and multidrug resistant (CEM/VLB) cell lines were grown in RPMI medium supplemented with 10% fetal bovine serum and antibiotics in 5% CO2 incubator at 37° C.
# Quantification of Cytokine and Chemokine Synthesis. Cytokines such as IL-1β, IL-2, IL-4, IL-6, IL-10, IL-12p40, IL-12p70, IL-18, IFN-γ and TNF-α, β and chemokine, MCP-1 were quantified by ELISA procedure using kits from BD Biosciences, according to manufacturer's protocols. IFN-α was assayed using the ELISA kit of RESEARCH DIAGNOSTICS Inc. (New Jersey). In short, 50 μl of ELISA diluent is pipetted into antibody coated wells of 96 well plates followed by 100 μl of each standard and test samples, shaken for 5 seconds to mix the contents in the wells, covered with plate sealer and incubated for 2 hours at room temperature. After incubation, the contents of the wells were aspirated and washed five times with wash solution. After complete removal of the wash solution in the final wash, 100 μl of detection solution was added, covered with plate sealer, and incubated for 1 hour. The wells were washed 7 times with wash solution and added 100 μl of one step substrate reagent and incubated for 30 minutes in dark. The color development was stopped by adding 50 μl of stop solution and the absorbance were recorded at 450 nm with a reference wave length of 570 nm in a BIO-RAD Benchmark plate reader.
# [5] = RR1 0-100 μg, 24 hours (FIGS. 8A-8H)
substance,measurement,setting,value
"(1,4)-α-D-glucan [RR1]",inhibitory effect on opsonized binding and phagocytosis of zymosan A bioparticles,RAW264.7 macrophages,failed to show any significant effect
same,inhibitory effect on opsonized binding and phagocytosis of zymosan A bioparticles,RAW264.7 macrophages; listed as RR-1,only little inhibitory effect
same,NO levels with RR1 treatment,[1],did not induce any higher levels of NO
same,NO levels with RR1 treatment,[2],did not induce any higher levels of NO
same,increase in NO,normal lymphocytes [3],≤ 21%
same,synthesis of IFN-γ,normal lymphocytes [4],90.16 pg/mL
same,synthesis of IL-6,normal lymphocytes [4],21833 pg/mL
same,synthesis of IL-12 p40,normal lymphocytes [4],918.23 pg/mL
same,synthesis of IL-12 p70,normal lymphocytes [4],50.19 pg/mL
same,synthesis of MCP-1,normal lymphocytes [4],2307 pg/mL
same,production of IFN-α,normal lymphocytes [4]; 24 hours,did not induce
same,production of IL-2,normal lymphocytes [4]; 24 hours,did not induce
same,production of IL-4,normal lymphocytes [4]; 24 hours,did not induce
same,production of IL-10,normal lymphocytes [4]; 24 hours,did not induce
same,production of TNF-β,normal lymphocytes [4]; 24 hours,did not induce
same,RR1 concentration at which the maximum IL-12 (p40) was recorded,normal lymphocytes [4]; FIG. 8C,10 µg/mL
same,synthesis of IFN-γ,normal lymphocytes [4]; [5],90.16 pg
same,synthesis of IL-1β,normal lymphocytes [4]; [5],1080 pg
same,synthesis of IL-6,normal lymphocytes [4]; [5],21833 pg
same,synthesis of IL-12 p40,normal lymphocytes [4]; [5],918.23 pg
same,synthesis of IL-12 p70,normal lymphocytes [4]; [5],50.19 pg
same,synthesis of IL-18,normal lymphocytes [4]; [5],27.47 pg
same,synthesis of MCP-1,normal lymphocytes [4]; [5],2307 pg
same,synthesis of TNF-α,normal lymphocytes [4]; [5],2225 pg
same,synthesis of IL-18,normal lymphocytes [4]; at 100 pg/ml concentration,27.47 pg/mL
same,synthesis of TNF-α,normal lymphocytes [4]; at 100 pg/ml concentration,2225 pg/mL
